Experimental data from ChEMBL document CHEMBL5150046, “Discovery of a Series of 5-Amide-1H-pyrazole-3-carboxyl Derivatives as Potent P2Y14R Antagonists with Anti-Inflammatory Characters” (J Med Chem, 2022).
Values after ≈ are worked out from the molar mass of the structure shown. Each block holds one molecule with its values, some of them ahead of it.

Assays:
[1] = biological target: T1, P2Y purinoceptor 14 (Homo sapiens) (UniProt Q15391)
T1 sequence (whole entry): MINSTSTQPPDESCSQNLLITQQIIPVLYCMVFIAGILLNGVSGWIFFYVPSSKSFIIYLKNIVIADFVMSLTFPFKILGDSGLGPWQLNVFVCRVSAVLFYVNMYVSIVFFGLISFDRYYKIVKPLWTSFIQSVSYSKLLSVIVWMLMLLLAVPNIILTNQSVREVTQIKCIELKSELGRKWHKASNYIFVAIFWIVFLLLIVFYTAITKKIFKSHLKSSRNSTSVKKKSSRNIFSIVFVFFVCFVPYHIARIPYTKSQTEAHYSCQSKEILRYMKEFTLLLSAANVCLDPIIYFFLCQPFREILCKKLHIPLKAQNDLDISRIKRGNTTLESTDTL

P2Y purinoceptor 14 = biological target: T2, P2Y purinoceptor 14 (Homo sapiens, UniProt Q15391); test: Antagonist activity at P2Y14R (unknown origin) expressed in HEK293 cells assessed as inhibition of forskolin-stimulated cAMP accumulation incubated in presence of IBMX by cAMP-glo assay; type: functional, cell-based
T2 sequence (Q15391 whole entry): T1 sequence (whole entry)

P2Y purinoceptor 6 = P2Y purinoceptor 6 (Homo sapiens, UniProt Q15077)
[2] = Metabolic stability in human liver microsomes assessed as elimination rate constant at 2 ug/ml preincubated for 5 mins followed by NADPH addition and measured upto 45 mins by LC-MS/MS analysis; type: ADME, Microsome; conditions: dose 2 µg/ml, time < 50 min
[3] = Aqueous solubility of the compound in PBS at pH 7.4 incubated for 24 hrs by UV-3000 absorption spectrometry analysis; type: physicochemical
[4] = Clearance in Sprague-Dawley rat at 10 mg/kg, po measured for 24 hrs; type: ADME, organism-based; conditions: in vivo
[5] = AUC (0 to infinity) in Sprague-Dawley rat at 2.5 mg/kg, iv measured for 24 hrs; type: ADME, organism-based; set-up: time 24 hrs, dose 2.5 mg/kg, route iv; conditions: in vivo
[6] = Metabolic stability in human liver microsomes assessed as half life at 2 ug/ml preincubated for 5 mins followed by NADPH addition and measured upto 45 mins by LC-MS/MS analysis; type: ADME, Microsome; conditions: dose 2 µg/ml, time < 50 min
[7] = Clearance in Sprague-Dawley rat at 2.5 mg/kg, iv measured for 24 hrs; type: ADME, organism-based; conditions: in vivo
[8] = Half life in Sprague-Dawley rat at 2.5 mg/kg, iv measured for 24 hrs; type: ADME, organism-based; conditions: in vivo
[9] = Aqueous solubility of the compound in simulated intestinal fluid without trypsin at pH 6.8 incubated for 24 hrs by UV-3000 absorption spectrometry analysis; type: physicochemical
[10] = Metabolic stability in rat liver microsomes assessed as half life at 2 ug/ml preincubated for 5 mins followed by NADPH addition and measured upto 45 mins by LC-MS/MS analysis; type: ADME, Microsome; conditions: dose 2 µg/ml, time < 50 min
[11] = Cmax in Sprague-Dawley rat at 10 mg/kg, po measured for 24 hrs; type: ADME, organism-based; set-up: time 24 hrs, dose 10 mg/kg, route po; conditions: in vivo
[12] = Metabolic stability in rat liver microsomes assessed as elimination rate constant at 2 ug/ml preincubated for 5 mins followed by NADPH addition and measured upto 45 mins by LC-MS/MS analysis; type: ADME, Microsome; conditions: dose 2 µg/ml, time < 50 min
[13] = Oral bioavailability in Sprague-Dawley rat at 10 mg/kg measured for 24 hrs; type: ADME, organism-based; conditions: in vivo
[14] = AUC (0 to infinity) in Sprague-Dawley rat at 10 mg/kg, po measured for 24 hrs; type: ADME, organism-based; set-up: dose 10 mg/kg, time 24 hrs, route po; conditions: in vivo
[15] = Half life in Sprague-Dawley rat at 10 mg/kg, po measured for 24 hrs; type: ADME, organism-based; conditions: in vivo
[16] = Aqueous solubility of the compound in double distilled water at pH 7 incubated for 24 hrs by UV-3000 absorption spectrometry analysis; type: physicochemical
[17] = Aqueous solubility of the compound in simulated gastric fluid without pepsin at pH 1.2 incubated for 24 hrs by UV-3000 absorption spectrometry analysis; type: physicochemical
[18] = Tmax in Sprague-Dawley rat at 10 mg/kg, po measured for 24 hrs; type: ADME, organism-based; conditions: in vivo
P2Y purinoceptor 12 = P2Y purinoceptor 12 (Homo sapiens, UniProt Q9H244); test: Antagonist activity at P2Y12R (unknown origin) expressed in CHO cells assessed as inhibition of forskolin-stimulated cAMP accumulation incubated for 15 mins in presence of IBMX by chromatography; type: functional, cell-based
[19] = (§1) Inhibition of caspase-1 mediated pyroptosis in LPS/ATP induced PMA-differentiated human THP-1 cells assessed as live cells at 10 uM pretreated for 24 hrs followed by LPS addition for 3 hrs and further incubated for 1 hr with ATP by caspase-1/PI staining based flow cytometry analysis (reference value: 43.3%); type: functional; set-up: scale not given: the % may be the effect or the level left; conditions: time 28 hrs
[20] = as §1, with “dead” for “live”, “22.5%)” for “43.3%)”; type: functional; set-up: scale not given: the % may be the effect or the level left; conditions: time 28 hrs
[21] = as §1, with “early apoptotic” for “live”, “17.9%)” for “43.3%)”; type: functional; set-up: scale not given: the % may be the effect or the level left; conditions: time 28 hrs
[22] = as §1, with “late apoptotic” for “live”, “16.3%)” for “43.3%)”; type: functional; set-up: scale not given: the % may be the effect or the level left; conditions: time 28 hrs
[23] = HEK293, filed as antagonist, dose 100.0 nM

Sequence of P2Y purinoceptor 6 (Q15077 whole entry): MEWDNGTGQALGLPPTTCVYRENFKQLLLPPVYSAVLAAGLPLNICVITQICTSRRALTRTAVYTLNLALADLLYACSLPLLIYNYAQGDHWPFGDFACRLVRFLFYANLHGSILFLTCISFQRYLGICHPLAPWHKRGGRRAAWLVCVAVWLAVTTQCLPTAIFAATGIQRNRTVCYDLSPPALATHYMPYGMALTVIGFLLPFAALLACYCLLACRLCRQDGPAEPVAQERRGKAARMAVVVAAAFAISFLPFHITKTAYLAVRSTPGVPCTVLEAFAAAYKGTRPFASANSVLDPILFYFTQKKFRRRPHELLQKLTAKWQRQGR
Sequence of P2Y purinoceptor 12 (Q9H244 whole entry): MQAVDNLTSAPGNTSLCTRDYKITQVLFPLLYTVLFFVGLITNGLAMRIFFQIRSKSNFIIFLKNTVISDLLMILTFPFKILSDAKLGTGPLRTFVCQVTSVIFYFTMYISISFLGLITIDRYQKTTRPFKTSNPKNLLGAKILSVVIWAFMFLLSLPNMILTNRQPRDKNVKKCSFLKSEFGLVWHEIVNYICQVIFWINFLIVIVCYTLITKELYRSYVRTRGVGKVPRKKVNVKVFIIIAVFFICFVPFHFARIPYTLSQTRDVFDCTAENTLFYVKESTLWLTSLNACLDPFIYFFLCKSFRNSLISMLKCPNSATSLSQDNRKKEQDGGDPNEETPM

Structure (SMILES): O=C(Nc1cc(C(=O)O)nn1Cc1ccc(F)cc1)c1ccccc1
inhibition [1, 23]: 77.4%

Structure (SMILES): Cc1ccc(C(=O)Nc2cc(C(=O)O)nn2Cc2cc(F)cc(F)c2)cc1
IC50 (P2Y purinoceptor 14): 41 nM | inhibition [1, 23]: 79.8%

Structure (SMILES): Cc1ccc(CC(=O)Nc2cc(C(=O)O)nn2Cc2ccc(F)cc2)cc1
inhibition ([1]; HEK293, dose 100.0 nM): 28.5%

Structure (SMILES): O=C(O)c1cc(-c2ccc(C3CCNCC3)cc2)c2ccc(-c3ccc(C(F)(F)F)cc3)cc2c1 [PPTN]
solubility at 24 h ([3]; PBS, pH 7.4): < 5 µg/mL | IC50 (P2Y purinoceptor 12): > 10000 nM | half-life at 2 ug/ml [6]: 0.767 h | solubility at 24 h ([9]; simulated intestinal fluid without trypsin, pH 6.8): < 5 µg/mL | Activity [19]: 79.8% | Activity [20]: 11.2% | Activity [21]: 4.68% | bioavailability [13]: 5% | solubility at 24 h ([16]; double distilled water, pH 7): < 5 µg/mL | solubility at 24 h ([17]; simulated gastric fluid without pepsin, pH 1.2): < 5 µg/mL | Activity [22]: 4.33%

Structure (SMILES): Cc1ccc(C(=O)Nc2cc(C(=O)O)nn2Cc2cccc(F)c2)cc1
IC50 (P2Y purinoceptor 14): 5.39 nM | inhibition [1, 23]: 89%

Structure (SMILES): CC(=O)c1ccc(C(=O)Nc2cc(C(=O)O)nn2Cc2ccc(F)cc2)cc1
IC50 (P2Y purinoceptor 14): 3.81 nM | inhibition [1, 23]: 98.2%

Structure (SMILES): O=C(O)c1cc(NC(=O)c2ccccc2F)n(Cc2ccc(F)cc2)n1
inhibition ([1]; HEK293, dose 100.0 nM): 20.1%

Results, then the molecule that gave them:

IC50 (P2Y purinoceptor 14): 111 nM | inhibition [1, 23]: 58.5%
Structure (SMILES): Cc1ccc(C(=O)Nc2cc(C(=O)O)nn2Cc2ccccc2F)cc1

IC50 (P2Y purinoceptor 14): 14.3 nM | inhibition [1, 23]: 98.3%
Structure (SMILES): Cc1ccc(C(=O)Nc2cc(CC(=O)O)nn2Cc2ccc(F)cc2)cc1

inhibition ([1]; HEK293, dose 100.0 nM): 22.4%
Structure (SMILES): N#Cc1ccc(C(=O)Nc2cc(C(=O)O)nn2Cc2ccc(F)cc2)cc1

IC50 (P2Y purinoceptor 14): 4.01 nM | inhibition [1, 23]: 90.3%
Structure (SMILES): Cc1ccc(C(=O)Nc2cc(C(=O)O)nn2Cc2cc(F)c(F)c(F)c2)cc1

IC50 (P2Y purinoceptor 6): 39500 nM
Structure (SMILES): S=C=Nc1cccc(NC(=S)NCCCCNC(=S)Nc2cccc(N=C=S)c2)c1

k el at 0.75 h, 2 ug/ml [2]: 8.33e-06 s⁻¹ | solubility ([3]; buffer, pH 7.4, 24 h): 318.7 µg/mL (≈ 902 µM) | CL/F [4]: 32.5 mL/min/kg | AUC(0-inf) [5]: 2600 ng·h/mL | half-life at 2 ug/ml [6]: 21 h | clearance [7]: 16.3 mL/min/kg | half-life [8]: 1.82 h | solubility ([9]; simulated gi fluid, pH 6.8, 24 h): 202.7 µg/mL (≈ 574 µM) | half-life at 2 ug/ml [10]: 2.88 h | Cmax [11]: 1100 ng/mL | k el at 0.75 h, 2 ug/ml [12]: 6.67e-05 s⁻¹ | bioavailability [13]: 43.2% | AUC(0-inf) [14]: 4500 ng·h/mL | half-life [15]: 4.57 h | solubility ([16]; buffer, pH 7, 24 h): 88.5 µg/mL (≈ 250 µM) | solubility ([17]; simulated gi fluid, pH 1.2, 24 h): 85.1 µg/mL (≈ 241 µM) | Tmax [18]: 0.25 h
Structure (SMILES): Cc1ccc(C(=O)Nc2cc(C(=O)O)nn2Cc2ccc(F)cc2)cc1

inhibition [1, 23]: 77.9%
Structure (SMILES): Cc1ccc(C(=O)Nc2cc(C(=O)O)nn2Cc2ccc(F)cc2)s1

inhibition ([1]; HEK293, dose 100.0 nM): 25.2%
Structure (SMILES): O=C(Nc1cc(C(=O)O)nn1Cc1ccc(F)cc1)c1cccc(F)c1

inhibition [1, 23]: 68.3%
Structure (SMILES): CCOC(=O)c1cc(NC(=O)c2ccc(C)cc2)n(Cc2ccc(F)cc2)n1
